Patent publication US9386938B2, “Methods for collagen imaging” (Collagen Medical, LLC, priority 2005, dated 2016)
“And” between values parts separate entries of the source, which are not always exact repeats. Identical values can stand only once. Like-named read-outs stand apart in the source and are kept apart here. Bridge positions count the residues as written; N and C are the ends. Ends that are not written are not given here. Glu‑DTPA‑Gd = N-terminal Glu-DTPA-Gd chelate (gadolinium DTPA complex on glutamic acid)

What was measured:
[1] = tested on: myocardium; assay: Myocardial MR imaging in mouse; format: in vivo, C57BL/6 mouse; conditions: 25 μmol/kg i.v. bolus, 4.7-T
[2] = tested on: infarcted myocardium; assay: Myocardial infarction MR imaging in mouse, 7 days post MI; format: in vivo, C57BL/6 mouse; conditions: 25 μmol/kg i.v. bolus
[3] = Heart uptake in mice, gadolinium by ICP-MS; conditions: mouse, mesentery vein injection
Experimental: Male BALB/c mice were anesthetized with pentobarbital (80 mg/kg ip). Following deep anesthesia, a longitudinal incision was made above the base of the abdomen up to just below the sternum. Internal organs were carefully moved out of the body cavity to the left, exposing the mesentery vein. […] The animals were sacrificed at 1, 5, 15, or minutes post-injection. The heart and lungs were immediately removed and rinsed in saline, separated from each other and rinsed with saline again. Both were removed and carefully dried before being prepared for analysis. Organs were digested with nitric acid and gadolinium content determined by ICP-MS.

[4] = In vivo heart uptake of collagen binding agent and non-binding analog; conditions: mouse, 10 μmol/kg tail vein, 15 minutes post-injection, N=4
[5] = tested on: perfused Langendorff rat heart; assay: Washout kinetics from perfused Langendorff rat heart; conditions: perfusion with buffer for 10 minutes
Experimental: (§1) After deep anesthesia with pentobarbital (80 mg/kg ip), the chest cavity of a male Sprague Dawley rat (300 g) was opened, retracted and the heart was removed immediately and placed in an ice-cold normal Krebs-Henseleit (K-H) solution (NaCl, 118 mM; KCl, 4.7 mM; CaCl2, 2.5 mM; MgSO4, 1.2 mM; KH2PO4, 1.2 mM; NaHCO3, 25 mM; glucose, 5.5 mM). A K-H buffer filled 20 Gauge needle was inserted into the apex of the heart penetrating into the bottom of the chamber. This was attached to a pressure transducer used to record and monitor heart function. Perfusion pressure (˜60 mmHg) was monitored using a second transducer. The heart was perfused at a constant flow rate of 10-12 mL/min with 37° C. Krebs-Henseleit buffer saturated with a mixture of 95% O2 and 5% CO2 gas. The heart was paced at 300 beats/min.
A Langendorff rat heart preparation was perfused with K-H buffer at a rate of 10-12 mL/min. A one mL solution containing SEQ ID NO: 144 (300 μM), radiolabeled (I-125) SEQ ID NO: 144 (1-6 μCi), GdDTPA (300 μM), and radiolabeled (Tc-99m) DTPA (5-8 μCi) was infused into the heart at a rate of 1 mL/min. After the infusion was finished, the heart was either removed or perfusion was allowed to continue for an additional 10 minutes and then the heart was removed. The perfusion buffer was not recirculated through the heart. After removal of any connective tissue, the heart was opened, fluid in the chambers drained, and the interior blotted dry with filter paper. The heart was then weighed and the radioactivity in the heart measured with a Packard Cobra 5003 Gamma Scintillation counter. […] An aliquot of the K-H buffer was also weighed and counted. Concentration estimates were decay corrected. Studies were performed at least in duplicate.
A Langendorff rat heart preparation was perfused with K-H buffer at a rate of 10-12 mL/min. […] The heart was then weighed and the radioactivity in the heart measured with a Packard Cobra 5003 Gamma Scintillation counter. […] An aliquot of the K-H buffer was also weighed and counted. […]

[6] = biological target: T1, rat type I collagen (Rattus norvegicus, UniProt P02454+P02466); assay: MR phantom imaging at 4.7 T of rat collagen gel samples; conditions: samples 4 and 8 (centrifuged)
T1 construct: Rat collagen (acid soluble, type I, rat tail); purchased Upstate USA, Inc 08-115; host or cells: rat tail (tissue extract)
Experimental: Samples: • 1. […] Sample prepared as sample 2, but centrifuged to separate insoluble rat collagen gel • 5. Sample prepared as sample 3, but centrifuged to separate insoluble human collagen gel • 6. 27 μM GdDTPA solution in PBS, pH 7.4 • 7. 27 μM GdDTPA in a solution of 5.0 μM rat type I collagen in 10 mM phosphate buffer, pH 5 incubated at 37° C. overnight to form a gel • 8. Sample prepared as in sample 7, but centrifuged to separate insoluble rat collagen gel • 9. Homogeneous gel of 5 μM rat collagen • 10. Homogeneous gel of 7.5 μM human collagen
Samples for imaging were placed in glass tubes that were in turn placed in tubes containing water. Images were acquired at 4.7 T on a Bruker Biospec Imager using a Multi-Slice Multi-Echo Method with variable Relaxation Delay (MSMEVTR) experiment. The spin echo time and the relaxation delay were set to TE=11.2 ms and TR=500 ms, respectively with a flip angle of 30°. Images were acquired of sample 2, sample 4, sample 7, and sample 8. […] Sample 7 and 8 show uniform signal intensity.

[7] = Biodistribution analysis in rats (heart and blood radioactivity); conditions: rat
Experimental: (§2) At either one or five minutes post injection the animals were sacrificed and the blood and heart collected. The heart was rinsed in a saline and blotted dry before analysis. […] An aliquot of the injection solution was also weighed and counted. Concentration estimates were decay corrected. Studies were performed at least in duplicate.

[8] = tested on: perfused Langendorff rat heart; assay: Equilibrium binding to perfused Langendorff rat heart; conditions: 10 minutes
Experimental: as §1
Two peptide test articles, a high collagen binding peptide (SEQ ID NO: 144) and a low collagen binding peptide (SEQ ID NO: 173), are compared to GdDTPA. The appropriate test article was added to the K-H buffer solution to a total concentration of either 3 or 30 μM. Also added to the K-H buffer was a radiotracer analog of each peptide or GdDTPA. For the peptides, the radiotracer was an aliquot of the appropriate 1-125 labeled peptide derivative (see Example 5 for protocol). For GdDTPA, the tracer added was Tc-99m labeled DTPA. The amount of radioactivity added to the buffer solution was 1-5 μCi.
The heart was perfused for a period of 10 minutes and the perfusion solution was recycled through the heart. The total volume of K-H buffer used was 50-60 mL. After 10 min, the heart was removed from the apparatus and any connective tissue was removed. The heart was opened, fluid in the chambers drained, and the interior blotted dry with filter paper. The heart was then weighed and the radioactivity in the heart measured with a Packard Cobra 5003 Gamma Scintillation counter. An aliquot of the K-H buffer was also weighed and counted. Studies were performed at least in duplicate.
The dual peptide gadolinium tetramer (Compound ID 803) was compared to GdDTPA. Compound ID 803 and GdDTPA were added to the K-H buffer solution to a total concentration of 3 μM. Also added to the K-H buffer was a radiotracer analog of Compound ID 803 or GdDTPA. For Compound ID 803, the radiotracer was an aliquot of the In-111 labeled compound. For GdDTPA, the tracer added was Tc-99m labeled DTPA. The amount of radioactivity added to the buffer solution was 1-5 μCi.

[9] = rat, in vivo
Experimental: as §2

T1 sequence (P02454 152-1207 limits assumed): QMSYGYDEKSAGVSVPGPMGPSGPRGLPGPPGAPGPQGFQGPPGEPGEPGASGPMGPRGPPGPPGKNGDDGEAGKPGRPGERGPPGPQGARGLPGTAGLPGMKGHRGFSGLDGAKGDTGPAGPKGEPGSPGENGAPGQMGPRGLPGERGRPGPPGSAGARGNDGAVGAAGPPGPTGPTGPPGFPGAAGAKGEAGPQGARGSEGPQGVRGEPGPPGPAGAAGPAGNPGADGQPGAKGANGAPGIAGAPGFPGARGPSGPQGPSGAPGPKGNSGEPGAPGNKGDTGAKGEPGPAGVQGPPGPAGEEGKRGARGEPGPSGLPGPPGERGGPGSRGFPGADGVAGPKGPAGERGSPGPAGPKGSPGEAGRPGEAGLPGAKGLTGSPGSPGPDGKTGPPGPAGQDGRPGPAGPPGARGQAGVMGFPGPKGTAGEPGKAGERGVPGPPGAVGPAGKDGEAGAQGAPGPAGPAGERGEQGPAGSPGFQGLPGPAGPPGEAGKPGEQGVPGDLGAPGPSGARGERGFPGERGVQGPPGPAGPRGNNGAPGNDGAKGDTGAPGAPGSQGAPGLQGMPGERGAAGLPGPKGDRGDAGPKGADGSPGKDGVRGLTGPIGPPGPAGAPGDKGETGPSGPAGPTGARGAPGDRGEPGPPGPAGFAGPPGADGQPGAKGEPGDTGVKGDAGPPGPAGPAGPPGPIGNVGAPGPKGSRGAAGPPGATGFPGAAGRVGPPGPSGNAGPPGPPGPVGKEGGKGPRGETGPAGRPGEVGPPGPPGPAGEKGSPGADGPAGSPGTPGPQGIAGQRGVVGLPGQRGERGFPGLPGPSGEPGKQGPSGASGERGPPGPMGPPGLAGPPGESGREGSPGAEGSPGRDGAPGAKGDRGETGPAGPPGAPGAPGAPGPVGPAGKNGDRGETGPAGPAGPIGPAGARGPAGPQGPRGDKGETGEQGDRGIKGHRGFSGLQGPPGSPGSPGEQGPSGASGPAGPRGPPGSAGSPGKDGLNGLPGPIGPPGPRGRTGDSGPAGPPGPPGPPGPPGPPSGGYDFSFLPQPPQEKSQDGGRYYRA
T1 sequence (P02466 86-1125 limits assumed): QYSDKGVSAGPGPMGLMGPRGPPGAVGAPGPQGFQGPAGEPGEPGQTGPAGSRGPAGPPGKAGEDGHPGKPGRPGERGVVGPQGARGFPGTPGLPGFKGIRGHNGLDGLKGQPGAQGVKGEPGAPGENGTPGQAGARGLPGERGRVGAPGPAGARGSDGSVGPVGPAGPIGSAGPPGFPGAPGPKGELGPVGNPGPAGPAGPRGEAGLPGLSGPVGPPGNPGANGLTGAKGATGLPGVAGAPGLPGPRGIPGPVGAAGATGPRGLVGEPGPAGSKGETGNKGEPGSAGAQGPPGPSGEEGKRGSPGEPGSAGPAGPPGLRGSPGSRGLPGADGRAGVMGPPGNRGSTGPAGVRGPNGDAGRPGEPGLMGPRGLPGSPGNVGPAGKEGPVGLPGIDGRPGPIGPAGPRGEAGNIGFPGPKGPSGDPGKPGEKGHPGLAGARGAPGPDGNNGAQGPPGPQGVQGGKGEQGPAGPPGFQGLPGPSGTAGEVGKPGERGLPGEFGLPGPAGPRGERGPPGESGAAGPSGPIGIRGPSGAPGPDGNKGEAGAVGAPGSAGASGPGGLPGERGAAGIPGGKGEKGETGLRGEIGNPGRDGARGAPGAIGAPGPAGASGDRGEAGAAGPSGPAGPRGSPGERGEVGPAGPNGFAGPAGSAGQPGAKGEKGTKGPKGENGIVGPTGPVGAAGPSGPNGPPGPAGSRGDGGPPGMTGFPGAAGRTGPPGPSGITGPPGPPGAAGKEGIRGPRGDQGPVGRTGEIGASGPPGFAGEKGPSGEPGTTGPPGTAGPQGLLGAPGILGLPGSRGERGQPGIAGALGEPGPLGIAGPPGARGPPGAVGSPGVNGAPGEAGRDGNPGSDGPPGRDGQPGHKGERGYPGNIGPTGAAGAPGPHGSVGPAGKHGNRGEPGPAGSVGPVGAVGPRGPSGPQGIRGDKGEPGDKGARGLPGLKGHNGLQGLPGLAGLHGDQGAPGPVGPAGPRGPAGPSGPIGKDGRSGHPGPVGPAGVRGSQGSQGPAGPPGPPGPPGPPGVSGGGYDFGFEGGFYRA

CC(C)C[C@H](NC(=O)[C@@H]1CSSC[C@H](NC(=O)[C@H](Cc2c[nH]cn2)NC(=O)[C@H](Cc2c[nH]c3ccccc23)NC(=O)[C@H](CCCCNC(=O)CNC(=S)Nc2ccc(C[C@@H](CN(CCN(CC(=O)O)CC(=O)O)CC(=O)O)N(CC(=O)O)CC(=O)O)cc2)NC(=O)CNC(=S)Nc2ccc(C[C@@H](CN(CCN(CC(=O)O)CC(=O)O)CC(=O)O)N(CC(=O)O)CC(=O)O)cc2)C(=O)N[C@@H]([C@@H](C)O)C(=O)N[C@@H]([C@@H](C)O)C(=O)N[C@@H](CCCCNC(=S)Nc2ccc(C[C@@H](CN(CCN(CC(=O)O)CC(=O)O)CC(=O)O)N(CC(=O)O)CC(=O)O)cc2)C(=O)N[C@@H](Cc2ccccc2)C(=O)N2CCC[C@H]2C(=O)N[C@@H](Cc2c[nH]cn2)C(=O)N[C@@H](Cc2c[nH]cn2)C(=O)N[C@@H](Cc2ccc(O)cc2)C(=O)N1)C(=O)N[C@@H](Cc1ccc(O)cc1)C(=O)N[C@@H](Cc1ccc(-c2ccccc2)cc1)C(N)=O [Compound ID 800]
persistence of positive enhancement of the myocardium [1]: at least 1 hour
MR enhancement of infarcted regions [2]: hyperenhancement of infarcted zones
persistence of enhancement [2]: at least 1 hour
retention of gadolinium in the heart [3]: ≥ 30 min

CC(C)C[C@H](NC(=O)[C@@H]1CSSC[C@@H](NC(=O)[C@H](Cc2c[nH]cn2)NC(=O)[C@H](Cc2c[nH]c3ccccc23)NC(=O)[C@H](CCCCNC(=O)CNC(=S)Nc2ccc(C[C@@H](CN(CCN(CC(=O)O)CC(=O)O)CC(=O)O)N(CC(=O)O)CC(=O)O)cc2)NC(=O)CNC(=S)Nc2ccc(C[C@@H](CN(CCN(CC(=O)O)CC(=O)O)CC(=O)O)N(CC(=O)O)CC(=O)O)cc2)C(=O)N[C@@H]([C@@H](C)O)C(=O)N[C@@H]([C@@H](C)O)C(=O)N[C@@H](CCCCNC(=S)Nc2ccc(C[C@@H](CN(CCN(CC(=O)O)CC(=O)O)CC(=O)O)N(CC(=O)O)CC(=O)O)cc2)C(=O)N[C@@H](Cc2ccccc2)C(=O)N2CCC[C@H]2C(=O)N[C@@H](Cc2c[nH]cn2)C(=O)N[C@@H](Cc2c[nH]cn2)C(=O)N[C@@H](Cc2ccc(O)cc2)C(=O)N1)C(=O)N[C@@H](Cc1ccc(O)cc1)C(=O)N[C@@H](Cc1ccc(-c2ccccc2)cc1)C(N)=O [Compound ID 1019]
Gadolinium concentration in the blood [4]: 13.3±0.3 nmol Gd/g tissue
Gadolinium concentration in the heart [4]: 14.7±1.0 nmol Gd/g tissue

O=C([O-])CN(CCN(CC(=O)[O-])CC(=O)O)CCN(CC(=O)[O-])CC(=O)O.[Gd+3] [GdDTPA, gadolinium diethylenetriaminepentaacetate, reference compound]
amount remaining in heart at 10 minutes after infusion relative to 0 minutes post infusion [5]: 0.5% and 2.2%
MR signal of centrifuged rat collagen gel pellet versus supernatant [6]: no increased concentration of GdDTPA in the gel relative to the supernatant
Heart:Blood ([7]; 1 min post injection): 0.26
Heart:Blood ([7]; 5 min post injection): 0.26

Glu-DTPA-Gd-G.Q.W.H.C.T.T.R.F.P.H.H.Y.C.L.Y.G-PEG-H ({Glu‑DTPA‑Gd}-GQWHCTTRFPHHYCLYG; disulfide 5-14 (inferred); not fully specified (C-terminus)) [SEQ ID NO. 186]
MR signal of centrifuged rat collagen gel pellet versus supernatant [6]: the pellet for sample 4 was much brighter than the supernatant

Q W T C S G D A Y T W H C N Y E (GQWTCSGDAYTWHCNYE; disulfide 5-14 (inferred); not fully specified (C-terminus)) [SEQ ID NO. 144]
heart uptake relative to GdDTPA [8]: about 10 times
amount remaining in heart at 10 minutes after infusion relative to 0 minutes post infusion [5]: 68%
Heart:Blood [9]: 0.38
